We go through 30 compounds from patent US8691865B2 (AbbVie Inc., priority 2008, dated 2014).

The IC50 is the concentration needed to halve the response being measured.

Structures are written as SMILES.

human Cav2.2, sequence (Q00975 whole entry): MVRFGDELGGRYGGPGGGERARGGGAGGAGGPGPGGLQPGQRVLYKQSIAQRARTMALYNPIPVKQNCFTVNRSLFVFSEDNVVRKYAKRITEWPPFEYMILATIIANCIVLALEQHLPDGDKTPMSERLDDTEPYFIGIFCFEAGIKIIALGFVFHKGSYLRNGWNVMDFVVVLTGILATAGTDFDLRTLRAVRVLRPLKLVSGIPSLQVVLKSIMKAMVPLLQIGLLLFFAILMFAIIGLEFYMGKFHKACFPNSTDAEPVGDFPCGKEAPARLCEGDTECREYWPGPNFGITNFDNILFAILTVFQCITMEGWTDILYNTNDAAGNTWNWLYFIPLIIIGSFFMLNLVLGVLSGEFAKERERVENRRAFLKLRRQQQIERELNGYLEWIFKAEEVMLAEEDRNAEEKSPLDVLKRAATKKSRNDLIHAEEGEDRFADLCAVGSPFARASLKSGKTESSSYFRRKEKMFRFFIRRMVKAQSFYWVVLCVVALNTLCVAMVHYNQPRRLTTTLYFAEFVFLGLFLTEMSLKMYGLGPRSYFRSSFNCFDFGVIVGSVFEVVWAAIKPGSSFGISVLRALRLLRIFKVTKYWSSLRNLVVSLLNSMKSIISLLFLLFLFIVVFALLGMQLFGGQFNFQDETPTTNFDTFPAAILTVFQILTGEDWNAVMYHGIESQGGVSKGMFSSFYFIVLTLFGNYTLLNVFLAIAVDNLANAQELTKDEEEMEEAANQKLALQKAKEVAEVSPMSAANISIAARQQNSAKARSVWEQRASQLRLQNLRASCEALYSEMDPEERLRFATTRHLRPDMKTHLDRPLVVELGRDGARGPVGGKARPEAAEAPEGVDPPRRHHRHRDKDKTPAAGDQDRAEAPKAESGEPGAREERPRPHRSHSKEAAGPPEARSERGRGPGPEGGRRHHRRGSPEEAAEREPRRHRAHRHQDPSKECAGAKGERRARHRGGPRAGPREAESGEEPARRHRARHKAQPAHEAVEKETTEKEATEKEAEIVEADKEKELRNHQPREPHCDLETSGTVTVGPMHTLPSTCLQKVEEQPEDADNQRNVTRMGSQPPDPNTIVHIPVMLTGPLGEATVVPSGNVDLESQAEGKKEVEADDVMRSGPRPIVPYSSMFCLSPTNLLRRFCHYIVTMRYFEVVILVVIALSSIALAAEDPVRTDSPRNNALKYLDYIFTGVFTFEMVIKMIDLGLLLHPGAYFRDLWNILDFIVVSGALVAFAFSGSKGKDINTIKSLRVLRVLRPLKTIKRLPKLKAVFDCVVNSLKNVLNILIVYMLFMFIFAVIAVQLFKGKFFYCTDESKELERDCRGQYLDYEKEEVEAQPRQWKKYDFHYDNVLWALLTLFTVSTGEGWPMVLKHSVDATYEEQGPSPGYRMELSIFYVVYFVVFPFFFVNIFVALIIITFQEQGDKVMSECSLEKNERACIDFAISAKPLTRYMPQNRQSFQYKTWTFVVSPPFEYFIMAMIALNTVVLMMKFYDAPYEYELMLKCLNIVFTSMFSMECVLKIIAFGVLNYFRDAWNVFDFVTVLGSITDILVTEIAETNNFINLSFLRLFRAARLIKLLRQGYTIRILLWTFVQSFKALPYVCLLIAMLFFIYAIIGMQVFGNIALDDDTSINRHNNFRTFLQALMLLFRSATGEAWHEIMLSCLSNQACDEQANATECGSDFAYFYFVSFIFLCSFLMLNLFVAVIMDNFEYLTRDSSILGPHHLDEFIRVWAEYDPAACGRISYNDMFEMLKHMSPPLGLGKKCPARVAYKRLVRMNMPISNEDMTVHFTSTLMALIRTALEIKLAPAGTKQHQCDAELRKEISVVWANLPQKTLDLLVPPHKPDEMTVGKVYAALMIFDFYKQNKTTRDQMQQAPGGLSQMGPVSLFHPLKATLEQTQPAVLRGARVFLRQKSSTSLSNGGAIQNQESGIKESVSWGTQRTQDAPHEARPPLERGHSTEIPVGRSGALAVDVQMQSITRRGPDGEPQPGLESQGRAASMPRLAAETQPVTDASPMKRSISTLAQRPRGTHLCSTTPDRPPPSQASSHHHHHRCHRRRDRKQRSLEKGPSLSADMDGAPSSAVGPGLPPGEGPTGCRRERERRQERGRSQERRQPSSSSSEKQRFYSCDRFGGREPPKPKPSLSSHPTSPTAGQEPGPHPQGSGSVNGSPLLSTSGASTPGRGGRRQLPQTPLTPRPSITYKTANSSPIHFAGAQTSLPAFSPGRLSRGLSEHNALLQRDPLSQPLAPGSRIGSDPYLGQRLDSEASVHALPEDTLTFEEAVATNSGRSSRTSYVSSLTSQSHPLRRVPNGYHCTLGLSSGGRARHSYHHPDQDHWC
human Cav2.2, sequence (P54289 25-956 partner limits assumed): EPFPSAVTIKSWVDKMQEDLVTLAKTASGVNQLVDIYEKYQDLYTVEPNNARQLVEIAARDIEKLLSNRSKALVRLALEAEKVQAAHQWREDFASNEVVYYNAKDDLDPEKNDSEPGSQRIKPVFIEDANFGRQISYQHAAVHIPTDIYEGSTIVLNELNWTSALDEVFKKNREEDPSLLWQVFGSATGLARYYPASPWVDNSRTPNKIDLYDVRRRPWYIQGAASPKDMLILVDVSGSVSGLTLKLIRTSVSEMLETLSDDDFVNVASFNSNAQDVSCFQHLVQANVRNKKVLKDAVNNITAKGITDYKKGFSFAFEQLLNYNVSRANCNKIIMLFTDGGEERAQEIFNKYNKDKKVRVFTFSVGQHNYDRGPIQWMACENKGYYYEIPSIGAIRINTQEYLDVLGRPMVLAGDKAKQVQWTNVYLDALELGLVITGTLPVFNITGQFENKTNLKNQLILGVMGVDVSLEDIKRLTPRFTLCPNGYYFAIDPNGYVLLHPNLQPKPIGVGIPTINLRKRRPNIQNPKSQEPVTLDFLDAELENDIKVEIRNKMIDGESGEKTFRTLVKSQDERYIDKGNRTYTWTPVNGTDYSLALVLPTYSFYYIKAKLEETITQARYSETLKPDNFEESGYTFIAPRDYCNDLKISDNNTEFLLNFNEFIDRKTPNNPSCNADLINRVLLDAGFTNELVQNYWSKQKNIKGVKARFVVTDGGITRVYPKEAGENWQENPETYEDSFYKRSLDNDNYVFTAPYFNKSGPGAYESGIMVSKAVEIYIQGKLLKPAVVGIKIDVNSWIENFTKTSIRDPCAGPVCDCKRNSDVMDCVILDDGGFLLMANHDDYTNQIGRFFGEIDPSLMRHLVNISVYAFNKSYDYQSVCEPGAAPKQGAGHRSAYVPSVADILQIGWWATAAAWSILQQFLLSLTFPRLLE
human Cav2.2, sequence (P54289 957-1103 partner limits assumed): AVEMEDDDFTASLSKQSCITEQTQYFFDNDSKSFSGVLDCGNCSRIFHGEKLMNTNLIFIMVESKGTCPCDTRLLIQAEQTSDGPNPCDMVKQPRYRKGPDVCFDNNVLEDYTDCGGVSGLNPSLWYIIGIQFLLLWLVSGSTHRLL
human Cav2.2, sequence (P54284 whole entry partner): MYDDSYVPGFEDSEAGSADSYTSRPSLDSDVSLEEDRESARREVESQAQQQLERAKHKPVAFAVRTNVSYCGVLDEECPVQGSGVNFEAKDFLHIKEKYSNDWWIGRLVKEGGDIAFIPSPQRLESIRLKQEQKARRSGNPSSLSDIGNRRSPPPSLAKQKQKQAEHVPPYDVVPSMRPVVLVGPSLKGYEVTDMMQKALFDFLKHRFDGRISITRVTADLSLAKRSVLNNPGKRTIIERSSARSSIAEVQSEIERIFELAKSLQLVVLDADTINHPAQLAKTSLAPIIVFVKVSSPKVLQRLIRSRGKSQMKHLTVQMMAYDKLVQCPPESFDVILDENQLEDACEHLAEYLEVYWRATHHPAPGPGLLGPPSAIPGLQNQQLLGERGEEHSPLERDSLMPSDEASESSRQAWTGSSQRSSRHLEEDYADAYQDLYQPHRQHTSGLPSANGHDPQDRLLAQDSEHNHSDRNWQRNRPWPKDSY

The first assay addresses human Cav2.2 (Homo sapiens, UniProt Q00975). Nature of the assay: Assessment of calcium channel activity using FLIPR (Ca2+ influx in IMR32 cells). Type of assay: cell-based.
Conditions: not given
The method, boiled down: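 Human neuroblastoma IMR32 cells were seeded at 1−1.2×10^5 cells/well and cultured 48 h at 37 °C before FLIPR calcium influx measurement. Percent inhibition at each concentration was calculated against the no-inhibitor signal, and IC50 came from sigmoidal dose-response fits.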
Consider `CN[C@@H](CC(C)(C)C)C(=O)N[C@H]1CC[C@@H]2CN(c3ccc(C(F)(F)F)cn3)C[C@@H]21` [Example 602, N^2,4-dimethyl-N-{(3aR,4S,6aS)-2-[5-(trifluoromethyl)pyridin-2-yl]octahydrocyclopenta[c]pyrrol-4-yl}-L-leucinamide], for which the IC50 worked out at 1.88 µM.
`CCC[C@H](NC)C(=O)N[C@H]1CC[C@@H]2CN(S(=O)(=O)c3ccco3)C[C@@H]21` [Example 547, N^1-[(3aR,4S,6aS)-2-(2-furylsulfonyl)octahydrocyclopenta[c]pyrrol-4-yl]-N^2-methyl-L-norvalinamide]: the IC50 is > 30 µM.
As to `O=C(N[C@H]1CC[C@H]2CN(Cc3ccccc3F)C[C@H]21)C(C1CCCCC1)C1CCCCC1` [Example 55, 2,2-dicyclohexyl-N-[(3aS,4S,6aR)-2-(2-fluorobenzyl)octahydrocyclopenta[c]pyrrol-4-yl]acetamide], the IC50 stood at 1.12 µM.
The same measure, in the same setting: with `O=C(CC(c1ccccc1)c1ccccc1)N[C@H]1CC[C@H]2CN(Cc3cccc(C(F)(F)F)c3)C[C@H]21` (relative stereo) [Example 131, 3,3-diphenyl-N-{(3aS*,4S*,6aR*)-2-[3-(trifluoromethyl)benzyl]octahydrocyclopenta[c]pyrrol-4-yl}propanamide] the figure was 0.66 µM; with `FC(F)(F)c1cccc(N2C[C@H]3CC[C@H](NCc4nc(-c5ccccc5)[nH]c4Cl)[C@H]3C2)n1` [Example 726, (3aR,4S,6aS)-N-[(5-chloro-2-phenyl-1H-imidazol-4-yl)methyl]-2-[6-(trifluoromethyl)pyridin-2-yl]octahydrocyclopenta[c]pyrrol-4-amine], 2.16 µM; with `O=C(N[C@H]1CC[C@@H]2CN(c3ncccc3C(F)(F)F)C[C@@H]21)[C@@H]1C[C@@H](F)CN1` [Example 660, (4R)-4-fluoro-N-{(3aR,4S,6aS)-2-[3-(trifluoromethyl)pyridin-2-yl]octahydrocyclopenta[c]pyrrol-4-yl}-L-prolinamide], 7.03 µM.
Turning to `O=C(N[C@H]1CC[C@@H]2CN(c3ccccc3F)C[C@@H]21)[C@@H]1C[C@@H](F)CN1` [Example 661, (4R)-4-fluoro-N-[(3aR,4S,6aS)-2-(2-fluorophenyl)octahydrocyclopenta[c]pyrrol-4-yl]-L-prolinamide], the IC50 was 14.7 µM.
As for `CN[C@@H](CC(C)C)C(=O)N[C@H]1CC[C@@H]2CN(c3cccc(C(F)(F)F)n3)C[C@@H]21` [Example 590, N^2-methyl-N-{(3aR,4S,6aS)-2-[6-(trifluoromethyl)pyridin-2-yl]octahydrocyclopenta[c]pyrrol-4-yl}-L-leucinamide], the IC50 came out at 0.45 µM.
With `O=C(N[C@H]1CC[C@@H]2CN(c3cccc(Cl)c3)C[C@@H]21)[C@@H]1C[C@@H](F)CN1` [Example 643, (4R)-N-[(3aR,4S,6aS)-2-(3-chlorophenyl)octahydrocyclopenta[c]pyrrol-4-yl]-4-fluoro-L-prolinamide], the IC50 was 3.57 µM.
On the same count and under the same terms, then `O=C(CCC(F)(F)F)N[C@H]1CC[C@@H]2CN(c3cccc(C(F)(F)F)n3)C[C@@H]21` [Example 582, 4,4,4-trifluoro-N-{(3aR,4S,6aS)-2-[6-(trifluoromethyl)pyridin-2-yl]octahydrocyclopenta[c]pyrrol-4-yl}butanamide], with 0.96 µM; and `CCC[C@H](NCC(C)(C)C)C(=O)N[C@H]1CC[C@@H]2CN(S(=O)(=O)c3ccc(C(F)(F)F)cc3)C[C@@H]21` [Example 257, N^2-neopentyl-N^1-((3aR,4S,6aS)-2-{[4-(trifluoromethyl)phenyl]sulfonyl}octahydrocyclopenta[c]pyrrol-4-yl)-L-norvalinamide], with 0.7 µM; and `CC(C)(C)C[C@H](NC(=O)OC(C)(C)C)C(=O)N[C@H]1CC[C@@H]2CN(C(=O)[C@H](CC(C)(C)C)NC(=O)OC(C)(C)C)C[C@@H]21` [Example 463, tert-butyl(S)-1-((3aR,4S,6aS)-4-((S)-2-(tert-butoxycarbonylamino)-4,4-dimethylpentanamido)hexahydrocyclopenta[c]pyrrol-2(1H)-yl)-4,4-dimethyl-1-oxopentan-2-ylcarbamate], with 2.03 µM.
On the same count and under the same terms, with `O=C(N[C@H]1CC[C@H]2CN(Cc3cccc(C(F)(F)F)c3)C[C@H]21)C1CCCCC1` (relative stereo) [Example 127, N-{(3aS*,4S*,6aR*)-2-[3-(trifluoromethyl)benzyl]octahydrocyclopenta[c]pyrrol-4-yl}cyclohexanecarboxamide] the figure was 1.26 µM.
Same read-out and setting: with `Cc1ccc(-c2n[nH]cc2CN[C@H]2CC[C@@H]3CN(c4cccc(C(F)(F)F)n4)C[C@@H]32)cc1` [Example 673, (3aR,4S,6aS)-N-{[3-(4-methylphenyl)-1H-pyrazol-4-yl]methyl}-2-[6-(trifluoromethyl)pyridin-2-yl]octahydrocyclopenta[c]pyrrol-4-amine] the figure was 0.74 µM; with `CN[C@@H](CC(C)C)C(=O)N[C@H]1CC[C@@H]2CN(c3cccc(C)c3)C[C@@H]21` [Example 636, N^2-methyl-N-[(3aR,4S,6aS)-2-(3-methylphenyl)octahydrocyclopenta[c]pyrrol-4-yl]-L-leucinamide], 3.73 µM.
Consider `CN[C@H](C(=O)N[C@H]1CC[C@@H]2CN(c3cccc(C(F)(F)F)n3)C[C@@H]21)C(C)C` [Example 764, N^2-methyl-N-{(3aR,4S,6aS)-2-[6-(trifluoromethyl)pyridin-2-yl]octahydrocyclopenta[c]pyrrol-4-yl}-L-valinamide], for which the IC50 amounted to 0.95 µM.
On to `CC[C@H](NC(C)C)C(=O)N[C@H]1CC[C@@H]2CN(c3ccc(C(F)(F)F)cc3)C[C@@H]21` [Example 762, (2S)-2-(isopropylamino)-N-{(3aR,4S,6aS)-2-[4-(trifluoromethyl)phenyl]octahydrocyclopenta[c]pyrrol-4-yl}butanamide], for which the IC50 is 5.11 µM.
`O=C(N[C@H]1CC[C@H]2CN(CCCc3cccc(F)c3)C[C@H]21)C(C1CCCCC1)C1CCCCC1` [Example 68, 2,2-dicyclohexyl-N-{(3aS,4S,6aR)-2-[3-(3-fluorophenyl)propyl]octahydrocyclopenta[c]pyrrol-4-yl}acetamide]: the IC50 was 0.82 µM.
Same read-out and setting: then `FC(F)(F)c1cccc(N2C[C@H]3CC[C@H](NCc4cn[nH]c4)[C@H]3C2)n1` [Example 696, (3aR,4S,6aS)-N-(1H-pyrazol-4-ylmethyl)-2-[6-(trifluoromethyl)pyridin-2-yl]octahydrocyclopenta[c]pyrrol-4-amine], with 3.52 µM; and `N[C@H]1CC[C@@H]2CN(c3cccc(C(F)(F)F)c3)C[C@@H]21` [Example 605, (3aR,4S,6aS)-2-[3-(trifluoromethyl)phenyl]octahydrocyclopenta[c]pyrrol-4-amine], with 4.33 µM.
Take `Cc1oncc1C(=O)N[C@H]1CC[C@@H]2CN(c3cccc(C(F)(F)F)n3)C[C@@H]21` [Example 581, 5-methyl-N-{(3aR,4S,6aS)-2-[6-(trifluoromethyl)pyridin-2-yl]octahydrocyclopenta[c]pyrrol-4-yl}-1,2-oxazole-4-carboxamide]: the IC50 was 2.99 µM.

The assay is the same for the next values; noted with them: read-out: IC50 (μM) or percent inhibition (* indicates 3 minute incubation, otherwise 60 minute); IC50; 60 minute pre-incubation with compound; IMR32 cells, 80 mM KCl depolarization.
For the compound `CC(C)(C)C(C(=O)N[C@H]1CC[C@@H]2CN(Cc3ccccc3)C[C@@H]21)c1ccccc1` (stereo partly drawn) [Example 52, N-[(3aR,4S,6aS)-2-benzyloctahydrocyclopenta[c]pyrrol-4-yl]-3,3-dimethyl-2-phenylbutanamide], the IC50 was 3.36 µM.
In the case of `CC(C)C[C@@H](C(=O)N[C@@H]1CC[C@H]2CN(Cc3cccc(C(F)(F)F)c3)C[C@H]21)N(C)C(=O)C(C)(C)C` [Example 176, N^2-(2,2-dimethylpropanoyl)-N^2-methyl-N^1-{(3aS,4R,6aR)-2-[3-(trifluoromethyl)benzyl]octahydrocyclopenta[c]pyrrol-4-yl}-L-leucinamide], the IC50 is 0.86 µM.
Same read-out and setting: then `O=C(N[C@@H]1CC[C@H]2CN(S(=O)(=O)c3ccc(F)cc3)C[C@H]21)[C@@H]1CCCCN1` [Example 399, (2S)-N-{(3aS,4R,6aR)-2-[(4-fluorophenyl)sulfonyl]octahydrocyclopenta[c]pyrrol-4-yl}piperidine-2-carboxamide], with 15.3 µM; and `CC(C)(C)C[C@H](NCC1CC1)C(=O)N[C@H]1CC[C@@H]2CN(c3cccc(C(F)(F)F)n3)C[C@@H]21` [Example 479, N^2-(cyclopropylmethyl)-4-methyl-N^1-{(3aR,4S,6aS)-2-[6-(trifluoromethyl)pyridin-2-yl]octahydrocyclopenta[c]pyrrol-4-yl}-L-leucinamide], with 0.26 µM.
`CC(C)C(C(=O)N[C@H]1CC[C@@H]2CN(Cc3ccccc3)C[C@@H]21)c1ccccc1` (stereo partly drawn) [Example 35, N-[(3aR,4S,6aS)-2-benzyloctahydrocyclopenta[c]pyrrol-4-yl]-3-methyl-2-phenylbutanamide]: the IC50 came out at 3.26 µM.
For the compound `CN[C@@H](CC(C)C)C(=O)N[C@H]1CC[C@@H]2CN(Cc3ccc(C(F)(F)F)cc3)C[C@@H]21` [Example 380, N^2-methyl-N^1-{(3aR,4S,6aS)-2-[4-(trifluoromethyl)benzyl]octahydrocyclopenta[c]pyrrol-4-yl}-L-leucinamide], the IC50 was 9.71 µM.
Turning to `CN[C@@H](CC(C)C)C(=O)N[C@H]1CC[C@H]2CN(Cc3cccc(C(F)(F)F)c3)C[C@H]21` [Example 164, N^2-methyl-N^1-{(3aS,4S,6aR)-2-[3-(trifluoromethyl)benzyl]octahydrocyclopenta[c]pyrrol-4-yl}-L-leucinamide], the IC50 was found to be 1.64 µM.
On the same count and under the same terms, then `O=C(N[C@H]1CC[C@H]2CN(Cc3ccc(C(F)(F)F)c(F)c3)C[C@H]21)C(C1CCCCC1)C1CCCCC1` [Example 58, 2,2-dicyclohexyl-N-{(3aS,4S,6aR)-2-[3-fluoro-4-(trifluoromethyl)benzyl]octahydrocyclopenta[c]pyrrol-4-yl}acetamide], with 1.35 µM; and `CCC[C@H](NC)C(=O)N[C@H]1CC[C@@H]2CN(S(=O)(=O)c3ccc(C(C)(C)C)cc3)C[C@@H]21` [Example 543, N^1-{(3aR,4S,6aS)-2-[(4-tert-butylphenyl)sulfonyl]octahydrocyclopenta[c]pyrrol-4-yl}-N^2-methyl-L-norvalinamide], with 3.2 µM.
